From patent US11065314B2, “Peptides and combination of peptides for use in immunotherapy against breast cancer and other cancers” (Immatics Biotechnologies GmbH, priority 2015, dated 2021)

Tests used:
[1] = test system: CD8+ T cells of healthy HLA-A*02 donors; assay: In vitro T-cell priming (aAPC with pMHC and anti-CD28), pMHC multimer readout; type: cell-based, human; details: for Wells positive [%]: HLA-A*02 restricted peptides, positive wells and donors among evaluable, Table 10B
Text: In order to obtain information regarding the immunogenicity of the TUMAPs of the present invention, the inventors performed investigations using an in vitro T-cell priming assay based on repeated stimulations of CD8+ T cells with artificial antigen presenting cells (aAPCs) loaded with peptide/MHC complexes and anti-CD28 antibody.
In order to perform in vitro stimulations by artificial antigen presenting cells loaded with peptide-MHC complex (pMHC) and anti-CD28 antibody, the inventors first isolated CD8+ T cells from fresh HLA-A*02 leukapheresis products via positive selection using CD8 microbeads (Miltenyi Biotec, Bergisch-Gladbach, Germany) of healthy donors obtained from the University clinics Mannheim, Germany, after informed consent.
PBMCs and isolated CD8+ lymphocytes were incubated in T-cell medium (TCM) until use consisting of RPMI-Glutamax (Invitrogen, Karlsruhe, Germany) supplemented with 10% heat inactivated human AB serum (PAN-Biotech, Aidenbach, Germany), 100 U/ml Penicillin/100 μg/ml Streptomycin (Cambrex, Cologne, Germany), 1 mM sodium pyruvate (CC Pro, Oberdorla, Germany), 20 μg/ml Gentamycin (Cambrex). 2.5 ng/ml IL-7 (PromoCell, Heidelberg, Germany) and 10 U/ml IL-2 (Novartis Pharma, Nümberg, Germany) were also added to the TCM at this step.
Generation of pMHC/anti-CD28 coated beads, T-cell stimulations and readout was performed in a highly defined in vitro system using four different pMHC molecules per stimulation condition and 8 different pMHC molecules per readout condition.
The purified co-stimulatory mouse IgG2a anti human CD28 Ab 9.3 (Jung et al., 1987) was chemically biotinylated using Sulfo-N-hydroxysuccinimidobiotin as recommended by the manufacturer (Perbio, Bonn, Germany). Beads used were 5.6 μm diameter streptavidin coated polystyrene particles (Bangs Laboratories, Illinois, USA).
800.000 beads/200 μl were coated in 96-well plates in the presence of 4×12.5 ng different biotin-pMHC, washed and 600 ng biotin anti-CD28 were added subsequently in a volume of 200 μl. Stimulations were initiated in 96-well plates by co-incubating 1×10^6 CD8+ T cells with 2×10^5 washed coated beads in 200 μl TCM supplemented with 5 ng/ml IL-12 (PromoCell) for 3 days at 37° C. Half of the medium was then exchanged by fresh TCM supplemented with 80 U/ml IL-2 and incubating was continued for 4 days at 37° C. This stimulation cycle was performed for a total of three times. For the pMHC multimer readout using 8 different pMHC molecules per condition, a two-dimensional combinatorial coding approach was used as previously described (Andersen et al., 2012) with minor modifications encompassing coupling to 5 different fluorochromes. Finally, multimeric analyses were performed by staining the cells with Live/dead near IR dye (Invitrogen, Karlsruhe, Germany), CD8-FITC antibody clone SK1 (BD, Heidelberg, Germany) and fluorescent pMHC multimers. For analysis, a BD LSRII SORP cytometer equipped with appropriate lasers and filters was used. Peptide specific cells were calculated as percentage of total CD8+ cells. Evaluation of multimeric analysis was done using the FlowJo software (Tree Star, Oregon, USA). In vitro priming of specific multimer+CD8+ lymphocytes was detected by comparing to negative control stimulations.

HLA-A*02:01 = HLA-A*02:01 (Homo sapiens, UniProt P04439, D140Y/D185E/D98H/E176V/E277Q/G131W/G231S/I119V/I121R/I166T/I218V/L300P/L318F/N151K/N90K/P208A/P217A/Q86G/Q94H/R138H/R169H/T345S); assay: MHC binding assay: UV-ligand exchange with β2m ELISA; details: binding to HLA-A*02:01, UV-ligand exchange
Text: Candidate peptides for T cell based therapies according to the present invention were further tested for their MHC binding capacity (affinity). The individual peptide-MHC complexes were produced by UV-ligand exchange, where a UV-sensitive peptide is cleaved upon UV-irradiation, and exchanged with the peptide of interest as analyzed. Only peptide candidates that can effectively bind and stabilize the peptide-receptive MHC molecules prevent dissociation of the MHC complexes. To determine the yield of the exchange reaction, an ELISA was performed based on the detection of the light chain (β2m) of stabilized MHC complexes. The assay was performed as generally described in Rodenko et al. (Rodenko et al., 2006).
96 well MAXISorp plates (NUNC) were coated over night with 2 ug/ml streptavidin in PBS at room temperature, washed 4× and blocked for 1 h at 37° C. in 2% BSA containing blocking buffer. Refolded HLA-A*02:01/MLA-001 monomers served as standards, covering the range of 15-500 ng/ml. Peptide-MHC monomers of the UV-exchange reaction were diluted 100-fold in blocking buffer. Samples were incubated for 1 h at 37° C., washed four times, incubated with 2 ug/ml HRP conjugated anti-β2m for 1 h at 37° C., washed again and detected with TMB solution that is stopped with […]. Absorption was measured at 450 nm. Candidate peptides that show a high exchange yield (preferably higher than 50%, most preferred higher than 75%) are generally preferred for a generation and production of antibodies or fragments thereof, and/or T cell receptors or fragments thereof, as they show sufficient avidity to the MHC molecules and prevent dissociation of the MHC complexes.

Row | Sequence | Wells positive [%] [1] | Peptide Exchange (peptide exchange yield) (HLA-A*02:01) | wells (in vitro immunogenicity, positive wells) ([1]; HLA class I peptides, Table 10A)
1 | ALAGSSPQV (listed as Homo sapiens) [SEQ ID NO: 2, HLA-A*02 peptide, source gene CNTD2] | “++” (20%-49% = ++) | “+++” (≥50 = +++) | 
2 | GLLGFQAEA (listed as Homo sapiens) [SEQ ID NO: 24, HLA-A*02 peptide, source gene MAGED1] | “++” (20%-49% = ++) | “++++” (≥75% = ++++) | 
3 | KMPEHISTV (listed as Homo sapiens) [SEQ ID NO: 1, HLA-A*02 peptide, source gene CILP] | “+” (<20% = +) | “+++” (≥50 = +++) | 
4 | SLADAVEKV (listed as Homo sapiens) [SEQ ID NO: 23, HLA-A*02 peptide, source gene CCDC122] | “+++” (50%-69% = +++) | “+++” (≥50 = +++) | 
5 | SLLTEPALV (listed as Homo sapiens) [SEQ ID NO: 21, HLA-A*02 peptide, source gene TBC1D9] | “++” (20%-49% = ++) | “+++” (≥50 = +++) | 
6 | TLSSIKVEV (listed as Homo sapiens) [SEQ ID NO: 50, peptide useful for personalized cancer therapies, source gene MXRA5] |  |  | + (<20% = +)
7 | YIDGLESRV (listed as Homo sapiens) [SEQ ID NO: 22, HLA-A*02 peptide, source gene CREB3L4] | “+” (<20% = +) | “+++” (≥50 = +++) | 
